The target in assay [1] is Human immunodeficiency virus type 1 protease (Human immunodeficiency virus 1, UniProt Q72874). Put plainly: Inhibitory activity against HIV-1 protease.
In assay [2] the test system is Human immunodeficiency virus 1. The assay can be described thus: Antiviral activity. Format: functional, organism-based.

Drawing on ChEMBL document CHEMBL1145883, “Lysine sulfonamides as novel HIV-protease inhibitors: optimization of the Nepsilon-acyl-phenyl spacer” (Bioorg Med Chem Lett, 2003), this text covers Ki and EC50 for 43 compounds.

The term Ki denotes the equilibrium dissociation constant of an inhibitor or competing ligand from its target. Low values mean higher affinity, high ones lower affinity. A word on the EC50: it is the midpoint of the concentration-response curve. Low readings indicate higher potency in that assay, high ones lower potency in that assay.

With `Cc1ccc(S(=O)(=O)N(CC(C)C)[C@@H](CCCCNC(=O)CNc2ccccc2)C(=O)O)cc1`, the Ki in assay [1] amounted to 0.0078 µM. As for `Cc1ccc(S(=O)(=O)N(CC(C)C)[C@@H](CCCCNC(=O)CN(Cc2ccccc2)c2ccccc2)C(=O)O)cc1`, the Ki in assay [1] was 0.00072 µM. `Cc1ccc(S(=O)(=O)N(CC(C)C)[C@H](CO)CCCCNC(=O)CN(c2ccccc2)C(C)C)cc1` yielded an EC50 in assay [2] of 1.1 µM. This compound also displayed a Ki in assay [1] of 0.016 µM. Regarding `Cc1ccc(S(=O)(=O)N(CC(C)C)[C@@H](CCCCNC(=O)CS(=O)(=O)c2ccccc2)C(=O)O)cc1`, affinity in assay [1] was put at a Ki of 0.02 µM. On the same count and under the same terms, with `Cc1ccc(S(=O)(=O)N(CC(C)C)[C@@H](CCCCNC(=O)OCc2ccccc2)C(=O)O)cc1` the figure was more than 0.3 µM; with `CC(C)CN([C@H](CO)CCCCNC(=O)CN(Cc1ccccc1)c1ccccc1)S(=O)(=O)c1ccc(N)cc1`, 0.0024 µM. In turn, `Cc1ccc(S(=O)(=O)N(CC(C)C)[C@@H](CCCCNC(=O)N(Cc2ccccc2)Cc2ccccc2)C(=O)O)cc1` returned a Ki in assay [1] of 0.008 µM. In assay [2], `Cc1ccc(S(=O)(=O)N(CC(C)C)[C@H](CO)CCCCNC(=O)CN(Cc2ccccc2)c2ccccc2)cc1` yielded an EC50 of 4.2 µM. The compound further gave a Ki in assay [1] of 0.0076 µM. Taken in the same sequence, the figures for `Cc1ccc(S(=O)(=O)N(CC(C)C)[C@H](CO)CCCCNC(=O)CN(c2ccccc2)c2ccccc2)cc1` were 6.7 µM and 0.012 µM. Consider `Cc1ccc(S(=O)(=O)N(CC(C)C)[C@@H](CCCCNC(=O)[C@@H](O)Cc2ccccc2)C(=O)O)cc1`, for which the Ki in assay [1] stood at 0.0062 µM. In assay [2], `Cc1ccc(S(=O)(=O)N(CC(C)C)[C@H](CO)CCCCNC(=O)CN(Cc2cccc(N)c2)c2ccccc2)cc1` registered an EC50 of 3 µM. Affinity in assay [1] was put at a Ki of 0.0076 µM. Turning to `Cc1ccc(S(=O)(=O)N(CC(C)C)[C@@H](CCCCNC(=O)C(=O)Cc2ccccc2)C(=O)O)cc1`, the Ki in assay [1] is 0.014 µM. For `Cc1ccc(S(=O)(=O)N(CC(C)C)[C@@H](CCCCNC(=O)NCc2ccccc2)C(=O)O)cc1`, affinity in assay [1] was put at a Ki of 0.032 µM.

For `Cc1ccc(S(=O)(=O)N(CC(C)C)[C@@H](CCCCNC(=O)c2ccccc2)C(=O)O)cc1`, in assay [1], the Ki was more than 0.3 µM. For `CC(C)CN([C@H](CO)CCCCNC(=O)CN(Cc1cccc(N)c1)c1ccccc1)S(=O)(=O)c1ccc(N)cc1`, a half-maximal effect in assay [2] (EC50) was put at 0.524 µM. For the same compound, the Ki in assay [1] is 0.0069 µM. As to `CC(C)CN([C@H](CO)CCCCNC(=O)CN(Cc1cccc([N+](=O)[O-])c1)c1ccccc1)S(=O)(=O)c1ccc(N)cc1`, the EC50 in assay [2] was 0.339 µM. Besides, the Ki in assay [1] stood at 0.0012 µM. `Cc1ccc(S(=O)(=O)N(CC(C)C)[C@@H](CCCCNC(=O)CCc2ccccc2)C(=O)O)cc1`: in assay [1], the Ki came out at 0.0069 µM. Same read-out and setting: with `Cc1ccc(S(=O)(=O)N(CC(C)C)[C@@H](CCCCNC(=O)Cc2ccccc2)C(=O)O)cc1` the figure was more than 0.3 µM.

The compound `COc1cccc(CN(CC(=O)NCCCC[C@@H](CO)N(CC(C)C)S(=O)(=O)c2ccc(C)cc2)c2ccccc2)c1OC` gave an EC50 in assay [2] of 0.76 µM. The compound further came in with a Ki in assay [1] of 0.0024 µM.

On to `CN[C@@H](Cc1ccccc1)C(=O)NCCCC[C@@H](C(=O)O)N(CC(C)C)S(=O)(=O)c1ccc(C)cc1`, for which affinity in assay [1] was put at a Ki of 0.0021 µM. `Cc1ccc(S(=O)(=O)N(CC(C)C)[C@H](CO)CCCCNC(=O)CN(Cc2cccc([N+](=O)[O-])c2)c2ccccc2)cc1` had an EC50 in assay [2] of 0.73 µM. This compound also displayed a Ki in assay [1] of 0.0014 µM. As for `COc1ccc(CN(CC(=O)NCCCC[C@@H](CO)N(CC(C)C)S(=O)(=O)c2ccc(N)cc2)c2ccccc2)cc1`, affinity in assay [1] was put at a Ki of 0.0024 µM. In turn, `CC(C)CN([C@H](CO)CCCCNC(=O)CN(Cc1ccc([N+](=O)[O-])cc1)c1ccccc1)S(=O)(=O)c1ccc(N)cc1` yielded an EC50 in assay [2] of 0.54 µM. In assay [1], this compound gave a Ki of 0.00059 µM. Compound `Cc1ccc(S(=O)(=O)N(CC(C)C)[C@@H](CCCCNC(=O)/C=C/c2ccccc2)C(=O)O)cc1` showed a Ki in assay [1] of more than 0.3 µM. In assay [2], `COc1ccc(CN(CC(=O)NCCCC[C@@H](CO)N(CC(C)C)S(=O)(=O)c2ccc(C)cc2)c2ccccc2)cc1` yielded an EC50 of more than 10 µM. The affinity in assay [1] corresponds to a Ki of 0.0073 µM. Regarding `Cc1ccc(S(=O)(=O)N(CC(C)C)[C@@H](CCCCNC(=O)CCCc2ccccc2)C(=O)O)cc1`, in assay [1], the Ki is more than 0.3 µM. In the case of `COc1ccc(CN(CC(=O)NCCCC[C@@H](CO)N(CC(C)C)S(=O)(=O)c2ccc(N)cc2)c2ccccc2)cc1OC`, in assay [2], the EC50 was determined as 0.366 µM. In assay [1], this compound had a Ki of 0.0029 µM. Compound `Cc1ccc(S(=O)(=O)N(CC(C)C)[C@H](CO)CCCCNC(=O)CN(CCc2ccccc2)c2ccccc2)cc1` registered an EC50 in assay [2] of more than 10 µM. Moreover, the affinity in assay [1], expressed as Ki, was 0.052 µM. On to `Cc1ccc(S(=O)(=O)N(CC(C)C)[C@@H](CCCCNC(=O)[C@@H](N)Cc2ccccc2)C(=O)O)cc1`, for which the affinity in assay [1], expressed as Ki, was 0.0015 µM.

As for `Cc1ccc(S(=O)(=O)N(CC(C)C)[C@@H](CCCCNC(=O)N(C)Cc2ccccc2)C(=O)O)cc1`, the Ki in assay [1] was 0.055 µM. `Cc1ccc(S(=O)(=O)N(CC(C)C)[C@@H](CCCCNC(=O)CN(C)c2ccccc2)C(=O)O)cc1`: in assay [1], the affinity corresponds to a Ki of 0.012 µM. As for `CC(C)CN([C@H](CO)CCCCNC(=O)CN(Cc1cccc(F)c1)c1ccccc1)S(=O)(=O)c1ccc(N)cc1`, a half-maximal effect in assay [2] (EC50) was put at 1.1 µM. The compound further registered a Ki in assay [1] of 0.0011 µM. `Cc1ccc(S(=O)(=O)N(CC(C)C)[C@@H](CCCCNC(=O)C(c2ccccc2)c2ccccc2)C(=O)O)cc1`: in assay [1], the affinity corresponds to a Ki of 0.171 µM. On to `Cc1ccc(S(=O)(=O)N(CC(C)C)[C@@H](CCCCNC(=O)COc2ccccc2)C(=O)O)cc1`, for which the affinity in assay [1] corresponds to a Ki of 0.018 µM. `Cc1ccc(S(=O)(=O)N(CC(C)C)[C@@H](CCCCNC(=O)C2CC2c2ccccc2)C(=O)O)cc1` (stereo partly specified): in assay [1], the Ki is more than 0.3 µM.

The compound `Cc1ccc(S(=O)(=O)N(CC(C)C)[C@H](CO)CCCCNC(=O)CN(Cc2ccccc2[N+](=O)[O-])c2ccccc2)cc1` registered an EC50 in assay [2] of 3.5 µM. In addition, in assay [1], affinity was put at a Ki of 0.0039 µM.

Regarding `Cc1ccc(S(=O)(=O)N(CC(C)C)[C@@H](CCCCNC(=O)CSc2ccccc2)C(=O)O)cc1`, the Ki in assay [1] was 0.018 µM.

Regarding `COc1ccc(CN(CC(=O)NCCCC[C@@H](CO)N(CC(C)C)S(=O)(=O)c2ccc(C)cc2)c2ccccc2)cc1OC`, a half-maximal effect in assay [2] (EC50) was put at 1.3 µM. Moreover, affinity in assay [1] was put at a Ki of 0.0035 µM.

In turn, `CC(C)CN([C@H](CO)CCCCNC(=O)CN(Cc1ccccc1[N+](=O)[O-])c1ccccc1)S(=O)(=O)c1ccc(N)cc1` showed an EC50 in assay [2] of 0.341 µM. Further, the affinity in assay [1] corresponds to a Ki of 0.0015 µM. In turn, `COc1cccc(CN(CC(=O)NCCCC[C@@H](CO)N(CC(C)C)S(=O)(=O)c2ccc(N)cc2)c2ccccc2)c1OC` yielded an EC50 in assay [2] of 0.34 µM. As for `CC(C)CN([C@H](CO)CCCCNC(=O)CN(Cc1ccccc1F)c1ccccc1)S(=O)(=O)c1ccc(N)cc1`, a half-maximal effect in assay [2] (EC50) was put at 2.2 µM. Also, the Ki in assay [1] was 0.0023 µM. The compound `CC(C)CN([C@H](CO)CCCCNC(=O)CN(Cc1ccc(F)cc1)c1ccccc1)S(=O)(=O)c1ccc(N)cc1` came in with an EC50 in assay [2] of 1 µM. Moreover, the Ki in assay [1] is 0.0023 µM. Consider `Cc1ccc(S(=O)(=O)N(CC(C)C)[C@@H](CCCCNC(=O)C(Cc2ccccc2)C(C)(C)C)C(=O)O)cc1` (stereo partly specified), for which the inhibition constant (Ki) in assay [1] was more than 0.3 µM.
